The experiment has as its target T1, New Delhi metallo-β-lactamase (NDM-1) (Escherichia coli, UniProt E5KIY2).
T1 construct: gene blaNDM-1; recombinant NDM-1 purified from E. coli BL21(DE3)-pET-32a(+)-blaNDM-1
Kind of experiment: nitrocefin hydrolysis assay with purified NDM-1, OD492. The experiment is classed as biochemical.

T1 sequence (E5KIY2 29-270 limits assumed): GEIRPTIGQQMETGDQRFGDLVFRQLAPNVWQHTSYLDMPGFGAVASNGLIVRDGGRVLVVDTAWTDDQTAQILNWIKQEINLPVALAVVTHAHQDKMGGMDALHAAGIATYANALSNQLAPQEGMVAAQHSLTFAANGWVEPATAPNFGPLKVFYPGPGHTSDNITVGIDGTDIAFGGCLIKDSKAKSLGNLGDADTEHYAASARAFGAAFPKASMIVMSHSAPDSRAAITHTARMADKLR

For `CC(C)NCC(O)COc1ccc(CCOCC2CC2)cc1` (stereo not shown) [BET, betaxolol], the half-maximal inhibitory concentration (IC50) (usually the concentration at which inhibition is half-maximal) was 19.3 ± 0.9 µM.

The values are drawn from paper PMC10487625, “Betaxolol as a Potent Inhibitor of NDM-1-Positive E. coli That Synergistically Enhances the Anti-Inflammatory Effect in Combination with Meropenem” (International Journal of Molecular Sciences, 2023).
